Patent publication US20050250677A1, “Glycopeptide antibiotic derivatives” (priority 2002, published 2005)
Where two headings read alike, the source gives them in different places.

Key:
Vero cells = settings: read-out: CC50 Vero
[1] = tested on: SARS virus (strain Frankfurt-1); assay: microbe, parasite or virus in culture; type: cell-based, human corona (SARS) virus; settings: SARS virus in Vero cells; read-out: EC50 SARS virus
FCV = assay: Feline corona virus assay in Feline Crandel kidney cells (MTS); type: cell-based; settings: for EC50: FCV in FCK cells, read-out: EC50 FCV
Procedure: Feline Crandel kidney cells were seeded in 96-well microtiter plates at 24,000 cells/well. Then, 24 hrs later, an appropriate inoculum of FCV is added together with 5-fold dilutions of the test compounds. After 4 days, a MTS/PMS solution was added to each well. Following a 90 min incubation period at 37° C., the optical density of the wells was read at 498 nm in a microplate reader.

human lymphocyte CEM = assay: Cytostatic activity assay, CEM cells; type: cell-based; settings: read-out: IC50 CEM (compound concentration required to inhibit tumor cell proliferation by 50%)
[2] = tested on: human lymphocyte Molt4/clone 8; assay: Cytostatic activity assay, Molt4/clone 8 cells; type: cell-based; settings: read-out: IC50 Molt4/C8 (compound concentration required to inhibit tumor cell proliferation by 50%)
murine leukemia L1210 = assay: Cytostatic activity assay, L1210 cells; type: cell-based; settings: read-out: IC50 L1210 (compound concentration required to inhibit tumor cell proliferation by 50%)
HIV-2(ROD) = assay: Inhibition of HIV-2 (ROD)-induced cytopathicity (giant cell formation) in CEM cells; type: cell-based; settings: read-out: EC50 HIV-2 (concentration required to inhibit HIV-induced giant cell formation by 50%); HIV-2, CEM cell cultures
Procedure: (§1) A variety of glycopeptide antibiotic derivatives of vancomycin, eremomycin and teicoplanin including their aglycon derivatives were evaluated for their inhibitory activity against HIV-1 (IIIB) and HIV-2(ROD) in CEM cell cultures.

HIV-1 (IIIB) = assay: Inhibition of HIV-1 (IIIB)-induced cytopathicity (giant cell formation) in CEM cells; type: cell-based; settings: read-out: EC50 HIV-1 (concentration required to inhibit HIV-induced giant cell formation by 50%); HIV-1, CEM cell cultures
Procedure: as §1

CMV = assay: Anti-CMV assay: virus-induced cytopathicity in HEL cell cultures
HEL cells [3] = tested on: HEL cells
VZV (wild-type strains) = assay: Anti-VZV assay (wild-type strains): virus-induced cytopathicity in HEL cell cultures; type: cell-based, varicella-zoster virus; settings: HEL cell cultures
HEL cells [4] = settings: read-out: CC50 (HEL), HEL cells
[5] = read-out: EC50 CMV AD-169, CMV strain AD-169, HEL cell cultures
[6] = VZV strain OKA, read-out: EC50 VZV (OKA)
[7] = VZV strain YS, read-out: EC50 VZV (YS)
[8] = read-out: EC50 CMV Davis, CMV strain Davis, HEL cell cultures

SMILES: NC1C(=O)NC2Cc3ccc(c(Cl)c3)Oc3cc4cc(c3O)Oc3ccc(cc3Cl)C(O)C3NC(=O)C(NC(=O)C4NC(=O)C(NC2=O)c2cc(O)cc(c2)Oc2cc1ccc2O)c1ccc(O)c(c1)-c1c(O)cc(O)cc1C(C(=O)O)NC3=O (stereo not shown) [Compound 159]
- CC50 (FCK cells; read-out: CC50 FCK, FCK cells): 85 µM
- CC50 (Vero cells): > 100 µM
- EC50 [1]: 28 µM
- EC50 (FCV): 9.9 µM

SMILES: COC(=O)C1NC(=O)C2NC(=O)C(NC(=O)C(NC(=O)OC(C)(C)C)c3cc(Oc4ccc(CC(NC(=O)OCc5ccccc5)C(=O)O)cc4Cl)c(O)c(c3)Oc3ccc(cc3Cl)C2O)c2ccc(O)c(c2)-c2c1cc(O)c(CNC1C3CC4CC(C3)CC1C4)c2O (stereo not shown) [Compound 53]
- IC50 (human lymphocyte CEM): 240 ± 13 µM
- CC50 (FCK cells): ≥ 100 µM
- IC50 [2]: 122 ± 13 µM
- CC50 (Vero cells): > 100 µM
- EC50 [1]: 29 µM
- IC50 (murine leukemia L1210): 95 ± 10 µM
- EC50 (HIV-2(ROD)): 11 ± 5.7 µM
- EC50 (HIV-1 (IIIB)): 17 ± 3.5 µM
- EC50 (FCV): 36 µM

SMILES: NC1C(=O)NC2Cc3ccc(c(Cl)c3)Oc3cc4cc(c3O)Oc3ccc(cc3Cl)C(O)C3NC(=O)C(NC(=O)C4NC(=O)C(NC2=O)c2cc(O)cc(c2)Oc2cc1ccc2O)c1ccc(O)c(c1)-c1c(O)cc(O)cc1C(C(=O)NC1CC2CCC1C2)NC3=O (stereo not shown) [Compound 162]
- CC50 (FCK cells; read-out: CC50 FCK, FCK cells): ≥ 100 µM
- CC50 (Vero cells): > 100 µM
- EC50 [1]: 22 µM
- EC50 (HIV-2(ROD)): 11 µM
- EC50 (HIV-1 (IIIB)): 4.5 µM
- EC50 (FCV): 4.7 µM

SMILES: NC1C(=O)NC2Cc3ccc(c(Cl)c3)Oc3cc4cc(c3O)Oc3ccc(cc3Cl)C(O)C3NC(=O)C(NC(=O)C4NC(=O)C(NC2=O)c2cc(O)cc(c2)Oc2cc1ccc2O)c1ccc(O)c(c1)-c1c(O)cc(O)cc1C(C(=O)NCC12CC4CC(CC(C4)C1)C2)NC3=O (stereo not shown) [Compound 166]
- IC50 (human lymphocyte CEM): 125 ± 30 µM
- CC50 (FCK cells; read-out: CC50 FCK, FCK cells): 49 µM
- IC50 [2]: 112 ± 2 µM
- CC50 (Vero cells): > 100 µM
- EC50 [1]: 31 µM
- IC50 (murine leukemia L1210): 91 ± 2 µM
- EC50 (HIV-2(ROD)): 7 µM
- EC50 (HIV-1 (IIIB)): 1.8 ± 0.58 µM
- EC50 (FCV): 8.5 µM

SMILES: CCCCCCCCCCCCNCc1c(O)cc2c(c1O)-c1cc(ccc1O)C1NC(=O)C3NC(=O)C(CC(N)=O)NC(=O)C(NC(=O)C(CC(C)C)NC)C(O)c4ccc(c(Cl)c4)Oc4cc3cc(c4OC3OC(CO)C(O)C(O)C3OC3CC(C)(N)C(O)C(C)O3)Oc3ccc(cc3)C(OC3CC(C)(N)C(O)C(C)O3)C(NC1=O)C(=O)NC2C(=O)O (stereo not shown) [Compound 64]
- CC50 (FCK cells; read-out: CC50 FCK, FCK cells): 75 µM
- CC50 (Vero cells): > 100 µM
- EC50 [1]: 31 µM
- activity against FCV (FCV): active
- EC50 (FCV): 8.2 µM

SMILES: O=C(NC1C(=O)NC2Cc3ccc(c(Cl)c3)Oc3cc4cc(c3O)Oc3ccc(cc3Cl)C(O)C3NC(=O)C(NC(=O)C4NC(=O)C(NC2=O)c2cc(O)cc(c2)Oc2cc1ccc2O)c1ccc(O)c(c1)-c1c(O)cc(O)cc1C(C(=O)O)NC3=O)C(=O)c1c[nH]c2ccccc12 (stereo not shown) [Compound 163]
- CC50 (FCK cells; read-out: CC50 FCK, FCK cells): 63 µM
- CC50 (Vero cells): > 100 µM
- EC50 [1]: 26 µM
- EC50 (HIV-2(ROD)): 15 µM
- EC50 (HIV-1 (IIIB)): 10 µM
- EC50 (FCV): 2.2 µM

SMILES: CCCCCCCCCNCc1c(O)cc2c(c1O)-c1cc(ccc1O)C1NC(=O)C3NC(=O)C4NC(=O)C(Cc5ccc(c(Cl)c5)Oc5cc3cc(c5O)Oc3ccc(cc3Cl)C(O)C(NC1=O)C(=O)NC2C(=O)NCCCN(C)C)NC(=O)C(N)c1ccc(O)c(c1)Oc1cc(O)cc4c1 (stereo not shown) [Compound 21]
- IC50 (human lymphocyte CEM): 179 ± 1 µM
- IC50 [2]: 136 ± 33 µM
- anti-CMV activity (CMV): anti-CMV activity
- EC50 (CMV; [5]): 8 µM
- MTC (HEL) (HEL cells [3]; anti-CMV table): 5 to 50 µM
- MTC (HEL) (HEL cells [3]; anti-VZV table): 5 to 50 µM
- IC50 (murine leukemia L1210): 43 ± 6 µM
- EC50 (VZV (wild-type strains); [6]): 1.3 µM
- EC50 (VZV (wild-type strains); [7]): 2 µM
- EC50 (HIV-2(ROD)): 6.5 ± 0.7 µM
- EC50 (HIV-1 (IIIB)): 2.2 µM
- CC50 (HEL cells [4]; anti-CMV table): 107 µM
- CC50 (HEL cells [4]; anti-VZV table): 107 µM

SMILES: CNC(CC(C)C)C(=O)NC1C(=O)NC(CC(N)=O)C(=O)NC2C(=O)NC3C(=O)NC(C(=O)NC(C(=O)N(C(=O)NC4CCCCC4)C4CCCCC4)c4cc(O)cc(O)c4-c4cc3ccc4O)C(O)c3ccc(cc3)Oc3cc2cc(c3O)Oc2ccc(cc2Cl)C1O (stereo not shown) [Compound 102]
- IC50 (human lymphocyte CEM): > 250 µM
- CC50 (FCK cells; read-out: CC50 FCK, FCK cells): > 100 µM
- IC50 [2]: > 250 µM
- CC50 (Vero cells): > 100 µM
- EC50 [1]: 68 µM
- IC50 (murine leukemia L1210): > 250 µM
- EC50 (HIV-2(ROD)): 32.5 ± 3.5 µM
- EC50 (HIV-1 (IIIB)): 7.5 ± 4.8 µM

SMILES: CCCCCCCCCC[N+](C)(C)CCCNC(=O)C1NC(=O)C2NC(=O)C(NC(=O)C3NC(=O)C4NC(=O)C(Cc5ccc(c(Cl)c5)Oc5cc3cc(c5O)Oc3ccc(cc3Cl)C2O)NC(=O)C(N)c2ccc(O)c(c2)Oc2cc(O)cc4c2)c2ccc(O)c(c2)-c2c(O)cc(O)cc21 (stereo not shown) [Compound 27]
- IC50 (human lymphocyte CEM): 18 ± 3 µM
- IC50 [2]: 28 ± 0.4 µM
- anti-CMV activity (CMV): anti-CMV activity
- EC50 (CMV; [5]): ≥ 5 µM
- EC50 (CMV; [8]): 3.5 µM
- MTC (HEL) (HEL cells [3]; anti-CMV table): ≧2-50 μM
- MTC (HEL) (HEL cells [3]; anti-VZV table): ≧2-50 μM
- IC50 (murine leukemia L1210): 9.1 ± 0.9 µM
- EC50 (VZV (wild-type strains); [6]): 1 µM
- EC50 (VZV (wild-type strains); [7]): 0.8 µM
- EC50 (HIV-2(ROD)): 2.3 ± 0.21 µM
- EC50 (HIV-1 (IIIB)): 1.5 ± 0.42 µM
- CC50 (HEL cells [4]; anti-CMV table): > 200 µM
- CC50 (HEL cells [4]; anti-VZV table): > 200 µM

SMILES: NC1C(=O)NC2Cc3ccc(c(Cl)c3)Oc3cc4cc(c3O)Oc3ccc(cc3Cl)C(O)C3NC(=O)C(NC(=O)C4NC(=O)C(NC2=O)c2cc(O)cc(c2)Oc2cc1ccc2O)c1ccc(O)c(c1)-c1c(O)cc(O)cc1C(C(=O)N1CCN(Cc2ccc4ccccc4c2)CC1)NC3=O (stereo not shown) [Compound 25]
- IC50 (human lymphocyte CEM): 113 ± 28 µM
- IC50 [2]: 47 ± 4 µM
- anti-CMV activity (CMV): anti-CMV activity
- EC50 (CMV; [5]): 30 µM
- MTC (HEL) (HEL cells [3]; anti-CMV table): 20 to 200 µM
- MTC (HEL) (HEL cells [3]; anti-VZV table): 20 to 200 µM
- IC50 (murine leukemia L1210): 175 ± 44 µM
- EC50 (VZV (wild-type strains); [6]): 1 µM
- EC50 (VZV (wild-type strains); [7]): 0.6 µM
- EC50 (HIV-2(ROD)): 5 µM
- EC50 (HIV-1 (IIIB)): 2.1 ± 1.3 µM
- CC50 (HEL cells [4]; anti-CMV table): > 50 µM
- CC50 (HEL cells [4]; anti-VZV table): > 50 µM

SMILES: CCCCCCCCCC[N+](C)(C)CCCNCc1c(O)cc2c(c1O)-c1cc(ccc1O)C1NC(=O)C3NC(=O)C4NC(=O)C(Cc5ccc(c(Cl)c5)Oc5cc3cc(c5O)Oc3ccc(cc3Cl)C(O)C(NC1=O)C(=O)NC2C(=O)NCCC[N+](C)(C)CCCCCCCCCC)NC(=O)C(N)c1ccc(O)c(c1)Oc1cc(O)cc4c1 (stereo not shown) [Compound 37]
- IC50 (human lymphocyte CEM): 9.4 ± 1.9 µM
- IC50 [2]: 19 ± 12 µM
- EC50 (CMV; [5]): > 5 µM
- EC50 (CMV; [8]): 3.5 µM
- MTC (HEL) (HEL cells [3]; anti-CMV table): ≧2-20 μM
- MTC (HEL) (HEL cells [3]; anti-VZV table): ≧2-20 μM
- IC50 (murine leukemia L1210): 12 ± 2 µM
- EC50 (VZV (wild-type strains); [6]): 1.5 µM
- EC50 (VZV (wild-type strains); [7]): > 2 µM
- EC50 (HIV-2(ROD)): 4.3 ± 0.58 µM
- EC50 (HIV-1 (IIIB)): 1.6 ± 0.58 µM
- CC50 (HEL cells [4]; anti-CMV table): 43 µM
- CC50 (HEL cells [4]; anti-VZV table): 43 µM

SMILES: CCCCCCCCCC[N+](C)(C)CCCNC(=O)C1NC(=O)C2NC(=O)C(NC(=O)C3NC(=O)C4NC(=O)C(Cc5ccc(c(Cl)c5)Oc5cc3cc(c5O)Oc3ccc(cc3Cl)C2O)NC(=O)C(N)c2ccc(O)c(c2)Oc2cc(O)cc4c2)c2ccc(O)c(c2)-c2c1cc(O)c(CN1CC[N+](C)(CCCCCCCCCC)CC1)c2O (stereo not shown) [Compound 39]
- IC50 (human lymphocyte CEM): 14 ± 2 µM
- IC50 [2]: 14 ± 3 µM
- EC50 (CMV; [5]): > 2 µM
- EC50 (CMV; [8]): 4 µM
- MTC (HEL) (HEL cells [3]; anti-CMV table): ≧5 μM
- MTC (HEL) (HEL cells [3]; anti-VZV table): ≧5 μM
- IC50 (murine leukemia L1210): 7.3 ± 0.3 µM
- EC50 (VZV (wild-type strains); [6]): 0.9 µM
- EC50 (VZV (wild-type strains); [7]): 0.81 µM
- EC50 (HIV-2(ROD)): 1.3 ± 0.21 µM
- CC50 (HEL cells [4]; anti-CMV table): 170 µM
- CC50 (HEL cells [4]; anti-VZV table): 170 µM
